# Laboratory results published in patent US12643879B2, “Functionalized heterocyclic compounds as modulators of stimulator of interferon genes (STING)” (RYVU THERAPEUTICS S.A., priority 2019, dated 2026).
# Counter-ions that a name gives are not always drawn. Like-named read-outs stand apart in the source and are kept apart here.
# Legend:
# [1] = system: interferon regulatory factor (IRF) pathway in THP-1 dual cells; test: THP-1 Dual reporter assay, IRF pathway (luciferase); assay type: cell-based; settings: Homo sapiens, THP1-Dual, read-out: THP1 Dual EC50 (μM) IRF
# Protocol: (§1) Compounds of the present invention were tested for their activity using THP-1 dual cells (Invivogen, cat no. thpd-nfis) allowing for simultaneous study of NF-κB pathway and the interferon regulatory factor (IRF) pathway. THP-1 dual cells contain luciferase reporter gene under the control of an ISG54 (interferon-stimulated gene) minimal promoter in conjunction with five interferon-stimulated response elements and a secreted embryonic alkaline phosphatase reporter gene under the control an IFN (interferon)-β minimal promoter fused to five copies of the NF-κB consensus transcriptional response element with three copies of the c-Rel binding site. Following 18 h of stimulation with STING agonist, medium was collected and transferred onto fresh cell culture plate. To verify activity of the IRF pathway, luminescence activity was measured with standard laboratory plate reader immediately after addition 10 μl of the medium to 40 or 50 μl of luminescence reagent (Invivogen, cat. No. rep-qlc2). To verify activity of NF-κB pathway, 10 or 20 μl of the medium was mixed with 80 μl of a detection medium (Invivogen, cat. No. rep-qb2) and incubated for 1 or 2 hours at 37° C. in a humidified atmosphere containing 5% CO2. Next, absorbance at 630 or 655 nm was recorded using standard laboratory plate reader.
# [2] = system: NF-κB pathway in THP-1 dual cells; test: THP-1 Dual reporter assay, NF-κB pathway (SEAP); assay type: cell-based; settings: Homo sapiens, THP1-Dual, read-out: THP1 Dual EC50 (μM) NFkB
# Protocol: as §1
# [3] = 18 h stimulation, absorbance at 630 or 655 nm
SMILES,"EC50 ([1]; 18 h stimulation, luminescence) [µM]","EC50 [2, 3] [µM]",EC50 ([1]; 18 h) [µM],EC50 ([2]; 18 h) [µM]
"Cc1ccc(N2CCC[C@H](N(Cc3ccnc(C)c3)Cc3cn(C4CC4)c4cc(OCCN(C)CCOCCOCCOCCOCCN)c(F)cc4c3=O)C2)cn1 [Example 11C, 7-[(1-amino-15-methyl-3,6,9,12-tetraoxa-15-azaheptadecan-17-yl)oxy]-1-cyclopropyl-6-fluoro-3-({[(3S)-1-(6-methylpyridin-3-yl)piperidin-3-yl][(2-methylpyridin-4-yl)methyl]amino}methyl)-1,4-dihydroquinolin-4-one]",1 to 10,1 to 10,,
"Cc1ccc(N2CCC[C@H](N(Cc3ccnc(C)c3)Cc3cn(C(C)C)c4cc(N5CC[C@@H](O)C5)ccc4c3=O)C2)cn1 [Example 52, 7-[(3R)-3-hydroxypyrrolidin-1-yl]-3-({[(3S)-1-(6-methylpyridin-3-yl)piperidin-3-yl][(2-methylpyridin-4-yl)methyl]amino}methyl)-1-(propan-2-yl)-1,4-dihydroquinolin-4-one]",< 1,< 1,,
"Cc1cc(CN(Cc2cn(C3CC3)c3cc(OCCO)c(F)cc3c2=O)[C@H]2CCCN(c3ccc(Cl)nc3)C2)ccn1 [Example 97, 3-({[(3S)-1-(6-chloropyridin-3-yl)piperidin-3-yl][(2-methylpyridin-4-yl)methyl]amino}methyl)-1-cyclopropyl-6-fluoro-7-(2-hydroxyethoxy)-1,4-dihydroquinolin-4-one hydrochloride]",,,< 1,< 1
"Cc1cc(CN(Cc2cn(C3CC3)c3cc(Cl)c(F)cc3c2=O)[C@H]2CCCN(c3cnccc3CO)C2)ccn1 [Example 74, 7-chloro-1-cyclopropyl-6-fluoro-3-({[(3S)-1-[4-(hydroxymethyl)pyridin-3-yl]piperidin-3-yl][(2-methylpyridin-4-yl)methyl]amino}methyl)-1,4-dihydroquinolin-4-one]",1 to 10,1 to 10,,
"C#CCOCCOCCOCCOCCOCCC(=O)Nc1ccc(CNC(=O)O[C@H]2CCCN(c3cc4c(cc3F)c(=O)c(CN(Cc3ccnc(C)c3)[C@H]3CCCN(c5ccc(C)nc5)C3)cn4C3CC3)C2)cc1 [Example 31B, (3S)-1-[1-cyclopropyl-6-fluoro-3-({[(3S)-1-(6-methylpyridin-3-yl)piperidin-3-yl][(2-methylpyridin-4-yl)methyl]amino}methyl)-4-oxo-1,4-dihydroquinolin-7-yl]piperidin-3-yl N-{[4-(4,7,10,13,16-pentaoxanonadec-18-ynamido)phenyl]methyl}carbamate]",< 1,< 1,,
"Cc1ccc(N2CCC[C@H](N(Cc3ccnc(C)c3)Cc3cn(C4CC4)c4cc(OCCOC(=O)NCc5ccc(NC(=O)CCOCCOCCOCCNC(=O)OC(C)(C)C)cc5)c(F)cc4c3=O)C2)cn1 [Example 47B, 2-{[1-cyclopropyl-6-fluoro-3-({[(3S)-1-(6-methylpyridin-3-yl)piperidin-3-yl][(2-methylpyridin-4-yl)methyl]amino}methyl)-4-oxo-1,4-dihydroquinolin-7-yl]oxy}ethyl N-{[4-(3-{2-[2-(2-{[(tert-butoxy)carbonyl]amino}ethoxy)ethoxy]ethoxy}propanamido)phenyl]methyl}carbamate]",,,< 1,< 1
"Cc1ccc(N2CCC[C@H](N(Cc3ccnc(C)c3)Cc3cn(C)c4cc(N5CC[C@@H](N)C(F)(F)C5)ccc4c3=O)C2)cn1 (single isomer, unassigned) [Example 50]",< 1,< 1,,
"Cc1cc(CN(Cc2cn(C3CC3)c3cc(N4CC[C@H](CO)C4)c(F)cc3c2=O)[C@H]2CCCN(c3cnccn3)C2)ccn1 [Example 94, 1-cyclopropyl-6-fluoro-7-[(3S)-3-(hydroxymethyl)pyrrolidin-1-yl]-3-({[(2-methylpyridin-4-yl)methyl][(3S)-1-(pyrazin-2-yl)piperidin-3-yl]amino}methyl)-1,4-dihydroquinolin-4-one hydrochloride]",< 1,< 1,,
"Cc1ccc(N2CCC[C@H](N(Cc3ccnc(C)c3)Cc3cn(CCO)c4ccccc4c3=O)C2)cn1 [Example 41, 1-(2-hydroxyethyl)-3-({[(3S)-1-(6-methylpyridin-3-yl)piperidin-3-yl][(2-methylpyridin-4-yl)methyl]amino}methyl)-1,4-dihydroquinolin-4-one]",1 to 10,1 to 10,,
"C#CCOCCOCCOCCOCCOCCC(=O)Nc1ccc(COC(=O)N(C)[C@H]2CCN(c3cc4c(cc3F)c(=O)c(CN(Cc3ccnc(C)c3)[C@H]3CCCN(c5ccc(C)nc5)C3)cn4C3CC3)C2)cc1 [Example 58A, [4-(4,7,10,13,16-pentaoxanonadec-18-ynamido)phenyl]methyl N-[(3S)-1-[1-cyclopropyl-6-fluoro-3-({[(3S)-1-(6-methylpyridin-3-yl)piperidin-3-yl][(2-methylpyridin-4-yl)methyl]amino}methyl)-4-oxo-1,4-dihydroquinolin-7-yl]pyrrolidin-3-yl]-N-methylcarbamate]",< 1,< 1,,
"Cc1cc(CN(Cc2cn(C3CC3)c3cc(OCCO)c(F)cc3c2=O)[C@H]2CCCN(c3cncc(C(F)(F)F)c3)C2)ccn1 [Example 93, 1-cyclopropyl-6-fluoro-7-(2-hydroxyethoxy)-3-({[(2-methylpyridin-4-yl)methyl][(3S)-1-[5-(trifluoromethyl)pyridin-3-yl]piperidin-3-yl]amino}methyl)-1,4-dihydroquinolin-4-one hydrochloride]",< 1,< 1,,
"Cc1ccc(N2CCC[C@H](N(Cc3ccnc(C)c3)Cc3cn(C4CC4)c4cc(OCCN(C)C(=O)CCOCCOCCOCCC(=O)O)c(F)cc4c3=O)C2)cn1 [Example 11G, 3-[2-(2-{2-[(2-{[1-cyclopropyl-6-fluoro-3-({[(3S)-1-(6-methylpyridin-3-yl)piperidin-3-yl][(2-methylpyridin-4-yl)methyl]amino}methyl)-4-oxo-1,4-dihydroquinolin-7-yl]oxy}ethyl)(methyl)carbamoyl]ethoxy}ethoxy)ethoxy]propanoic acid formate]",1 to 10,1 to 10,,
C#CCOCCOCCOCCOCCOCCC(=O)Nc1ccc(COC(=O)N(C)[C@@H]2CCN(c3cc4c(cc3F)c(=O)c(CN(Cc3ccnc(C)c3)[C@H]3CCCN(c5ccc(C)nc5)C3)cn4C3CC3)C2)cc1 [Example 55A],< 1,< 1,,
"Cc1ccc(N2CCC[C@H](N(Cc3ccnc(C)c3)Cc3cn(CC(N)=O)c4ccccc4c3=O)C2)cn1 [Example 77, 2-[3-({[(3S)-1-(6-methylpyridin-3-yl)piperidin-3-yl][(2-methylpyridin-4-yl)methyl]amino}methyl)-4-oxo-1,4-dihydroquinolin-1-yl]acetamide]",1 to 10,1 to 10,,
"Cc1ccc(N2CCC[C@H](N(Cc3ccnc(C)c3)Cc3cn(C4CC4)c4cc(N5CC[C@@H](N(C)CCOCCOCCOCCOCCNC(=O)OC(C)(C)C)C5)c(F)cc4c3=O)C2)cn1 [Example 55B, tert-Butyl N-{2-[(3R)-1-[1-cyclopropyl-6-fluoro-3-({[(3S)-1-(6-methylpyridin-3-yl)piperidin-3-yl][(2-methylpyridin-4-yl)methyl]amino}methyl)-4-oxo-1,4-dihydroquinolin-7-yl]pyrrolidin-3-yl]-5,8,11,14-tetraoxa-2-azahexadecan-16-yl}carbamate]",< 1,< 1,,
